Experimental data published in US9981043B2, “Analgesic conjugates” (priority 2013, dated 2018).
“Also recorded” adds a separate entry of the source.

What was measured:
[1] = system: control mice; experiment: Radiant tail flick antinociception, control (not pretreated) mice; assay type: in vivo; settings: controls; for ED50 (CI) i.c.v. / ED50 (CI) i.t.: tail flick
Protocol: (§1) Compounds were dissolved in 10% DMSO and then diluted to less than 1% DMSO in the test solutions. […] Compounds were administered in a 5-μl volume in conscious mice, either i.c.v. (Haley T J & McCormick W G, Br J Pharmacol Chemother, 1957, 12(1), 12-15) or i.t. (Hylden J L K & Wilcox G L, Eur. J. Pharmacol., 1980, 67(2-3), 313-316). Peak times were determined by comparing the percent maximal possible effect (% MPE) at 5, 10, 20 and 60 minutes after injection.
(§2) The tail flick assay is used first to test for antinociception as described by D'Amour and Smith (D'AMOUR FE & SMITH DL (1941) J. Pharmacol. Exp. Ther. 72(1):74-79) and modified by Dewey et al. (Dewey W L, Harris L S, Howes J F, & Nuite JA (1970) J. Pharmacol. Exp. Ther. 175(2):435-442). For the measurement of the tail-flick latency, mice are wrapped in a light cloth and held gently in one hand with the tail positioned in the apparatus (Tail Flick Analgesia Meter, Columbus Instruments, Columbus, Ohio) for radiant heat stimulus. The tail-flick response is elicited by applying radiant heat to the dorsal side of the tail. The intensity of the heat is set so that the mouse flicks its tail within 2 to 3 seconds. The test latency is measured before drug treatment (control) and again after the drug treatment (test) at the peak time of the compound; a 10 second maximum cut-off time is used to prevent damage to the tail. Antinociception is quantified according to the Harris L S & Pierson A K, J. Pharmacol. Exp. Ther., 1964, 143(2):141-148, as the percent maximal possible effect (% MPE), which is calculated as: % MPE=(Test−Control/10−Control)×100.
(§3) At least three groups of four to ten mice are used for each dose response curve. ED50 values with 95% confidence intervals (C.I.) are computed with GraphPad Prism 4 by using nonlinear regression methods.

[2] = system: LPS pretreated mice; experiment: Radiant tail flick antinociception, LPS pretreated mice; assay type: in vivo; settings: for % MPE / dose range of antinociception: LPS pretreated; for ED50 (CI) i.t. / ED50 (CI) i.c.v.: LPS pretreated (1 mg/kg 24 hours i.p.)
Protocol: as §1
The first group mice were pretreated with lipopolysaccaride (LPS, 1 mg/kg, i.p. from Escherichia coli 0111:B4; Sigma-Aldrich, St. Louis, Mo.) for 24 hours before testing for antinociception of compounds 2-6 (Seo Y-J, et al., Pharmacol., Biochem. Behav., 2008, 91, 121-127). This group was compared to a group without pretreatment.
as §2, §3

[3] = system: control mice; experiment: Acute (24 hour) tolerance, tail flick, control mice; assay type: in vivo; settings: controls
Protocol: (§4) Acute tolerance utilizing the radiant tail flick assay was measured by comparing the ED80-90 dose on day 1 to the same dose measured 24 hours later on the same mouse. For the LPS pretreated mice, no additional LPS was given to the mice for the acute tolerance test. […] However, the effect was less robust 72 hours after the initial LPS injection. Thus confirming that the acute tolerance test was accurate for the LPS pretreated mice.

[4] = system: LPS pretreated mice; experiment: Acute (24 hour) tolerance, tail flick, LPS pretreated mice; assay type: in vivo; settings: 24 hours
Protocol: as §4

[5] = system: C3H mice with bone cancer; experiment: von Frey mechanical hyperalgesia, bone cancer (fibrosarcoma) mice; assay type: in vivo; settings: bone cancer, 250 pmol/mouse, day 3
Protocol: The mouse hind paw model of bone cancer was the third model of pain (Wacnik P W, et al., Pain Research & Management, 2000, 16, 615-637; and Wacnik P W, et al., J Neurosci, 2001, 21(23), 9355-9366). Cell Culture: National Collection of Type Cultures (NCTC) clone 2472 fibrosarcoma cells, originally derived from a connective tissue tumor in a C3H mouse, were obtained from the American Type Cell Culture Collection (Rockville, Md.). Cells were grown and maintained in accordance with standard cell culturing techniques. NCTC cells were grown to 80-90% confluence in 75 cm^2 flasks (Corning, Lowell, Mass.) in Dulbecco's Modification of Eagles Medium (Invitrogen, Carlsbad, Calif.) fortified with 10% Horse Serum and sodium bicarbonate. Cell cultures were housed in a water-jacketed incubator with 5% carbon dioxide at 37° C.
Cells were prepared for implantation by first pouring off the culture medium and washing with phosphate-buffered saline (PBS). Trypsin was added to flask and placed in incubator for 3 minutes. Upon detachment, cells were suspended in an ample amount of culture medium to terminate enzymatic activity and centrifuged for 10 min at 1000 g. Fibrosarcoma cells were re-suspended in a known amount of PBS for counting, quantified on a hemacytometer, pelleted and re-suspended in PBS. Fibrosarcoma cells were again re-suspended to a final concentration of 2×10^5 cells in 20 μl. Initially, animals were anesthetized in a plexi-glass chamber using 3% isoflurane in 3 L/min oxygen. Once each mouse was completely anesthetized, a maintenance rate of 2% isoflurane in 1.5 L/min oxygen was maintained during the short implantation procedure. Tumor cells were manually injected by boring into the calcaneus bone using a 29½ gauge needle connected to a sterile 0.3 ml insulin syringe as previously described (19). Following injection, mice were allowed to recover in cages on a heating pad. Animals showing any signs of dysfunction (e.g. problems with ambulation, lethargy or excessive bleeding) or distress where euthanized according to CO2 guidelines.
C3H mice were was placed under a clean glass cup on a wire mesh grid and allowed to acclimate for thirty minutes. Mechanical hypersensitivity was tested using a von Frey filament #3.61 (which produces a force of […]) to the plantar surface of both the left and right hind paw with enough force to cause it to bow slightly. Starting with the right hind paw, the number of positive responses out of a total of 10 applications was recorded followed by the left hind paw. Positive response was indicated by a sharp withdrawal or flinching behavior of the paw. Baseline von Frey measurements were obtained prior to treatment with CFA, tumor and saline controls. […] Subsequent measurements were taken at various time points after intrathecal (i.t.) injection of test compounds on days 3, 7, 10, 14, 17, and 21. % MPE was calculated ((Time-point value−Day# baseline)/(Day 0 baseline−day# baseline))*100 (Smeester B A, Al-Gizawiy M, & Beitz A J (2012) Evidence-Based Complementary and Alternative Medicine 2012:16). Animals with saline injection served as controls for tumor cell implantation and tumor-induced nociception. Behavioral assessments were conducted during the light cycle at approximately the same time each day. The investigator performing the von Frey testing was blinded to the animal and compound injected.
A well-established rodent hind paw model of bone cancer pain (Wacnik P W, et al., J Neurosci. 2001, 21(23), 9355-66) was to examine the effects of representative bivalent ligands on tumor-induced nociception. The inbred C3H/He line is syngeneic to the fibrosarcoma cells used in these experiments and allows these cells to grow tumors without rejection. Male C3H mice were used for all experiments. Animals were maintained on a 12 hour light/dark cycle with food and water ad libitum.
Cells were prepared for implantation by first pouring off the culture medium and washing with phosphate-buffered saline (PBS). […]

[6] = system: C3H/HeNCrlVr mice; settings: intrathecal; spontaneous pain, mechanical allodynia, thermal hyperalgesia; cited from earlier work
[7] = system: live mice; experiment: Respiratory depression (Mouse Ox O2 saturation); assay type: in vivo; settings: i.t.; dose 100 times the ED90
Protocol: Respiratory depression was measured in live mice using the Mouse Ox (small animal Oximeter from STARR Life Sciences Corp, Oakmont, Pa.). CollarClip™—(Un-Anesthetized Neck Sensor) for mice was used as the site for measuring the data. Day one of each experiment involved training the animals using a disposable CollarClip™. The collar was left on for approximately one hour. […] Mice were monitored for a 60-minute period, with measurements 10-20-30 and 60 minutes.
Respiratory depression was measured in live mice using the Mouse Ox (small animal Oximeter from STARR Life Sciences Corp, Oakmont, Pa.). CollarClip™ (Un-Anesthetized Neck Sensor) for mice was used as the site for measuring the data.
Day one of each experiment involved training the animals using a disposable CollarClip™. The collar was left on for approximately one hour.
Mice were monitored for a 60-minute period, with measurements 10-20-30 and 60 minutes.

Structure (SMILES) | ED50 (CI) i.c.v. ([1]; i.c.v.) [pmol/mouse] | ED50 (CI) i.t. ([1]; i.t.) [pmol/mouse] | ED50 (CI) i.t. ([2]; i.t.) [pmol/mouse] | dose range of antinociception ([2]; i.t.) | Tolerance ([3]; i.c.v.) | Tolerance ([3]; i.t.) | Tolerance ([4]; i.t.) | ED50 (CI) i.c.v. ([2]; i.c.v.) [pmol/mouse] | also measured
COc1cccc(C#Cc2cccc(C)n2)c1 [Compound 2, 2-((3-methoxyphenyl)ethynyl)-6-methylpyridine, reference compound] | – | – | – | – | – | – | – | – | % MPE ([1]; i.c.v., 250 pmol/mouse): 14.59 ± 4.63% MPE; % MPE ([1]; i.t., 250 pmol/mouse): 13.27 ± 3.39% MPE; % MPE ([2]; i.t., 250 pmol/mouse): 21.96 ± 10.50% MPE
Cc1cccc(C#Cc2cccc(OCCNC(=O)COCC(=O)N[C@H]3CC[C@@]4(O)C5Cc6ccc(O)c7c6[C@@]4(CCN5C)[C@H]3O7)c2)n1 [Compound 3, N-((4aS,7S,7aR,12bS)-4a,9-dihydroxy-3-methyl-2,3,4,4a,5,6,7,7a-octahydro-1H-4,12-methanobenzofuro[3,2-e]isoquinolin-7-yl)-2-(2-((2-(3-((6-methylpyridin-2-yl)ethynyl)phenoxy)ethyl)amino)-2-oxoethoxy)acetamide] | 529.6 | 114.7 | 8.17 | nmol range | Tolerance | No Tolerance | Tolerance was also observed; also recorded: exhibited tolerance | – | % MPE ([2]; i.c.v., 500 pmol/mouse): 56.86 ± 8.95% MPE
Cc1cccc(C#Cc2cccc(OCCNC(=O)COCC(=O)NCCNC(=O)COCC(=O)N[C@H]3CC[C@@]4(O)C5Cc6ccc(O)c7c6[C@@]4(CCN5C)[C@H]3O7)c2)n1 [Compound 4a, N-((4aS,7S,7aR,12bS)-4a,9-dihydroxy-3-methyl-2,3,4,4a,5,6,7,7a-octahydro-1H-4,12-methanobenzofuro[3,2-e]isoquinolin-7-yl)-2-((14-(3-((6-methylpyridin-2-yl)ethynyl)phenoxy)-2,7,11-trioxo-9-oxa-3,6,12-triazatetradecyl)oxy)acetamide] | 119.50 | 34.31 | 20.57 | nmol range | Tolerance | Tolerance | created tolerance; also recorded: exhibited tolerance | 80.85 | Tolerance ([4]; i.c.v.): Tolerance
Cc1cccc(C#Cc2cccc(OCCNC(=O)COCC(=O)NCCCNC(=O)COCC(=O)N[C@H]3CC[C@@]4(O)C5Cc6ccc(O)c7c6[C@@]4(CCN5C)[C@H]3O7)c2)n1 [Compound 4b, N-((4aS,7S,7aR,12bS)-4a,9-dihydroxy-3-methyl-2,3,4,4a,5,6,7,7a-octahydro-1H-4,12-methanobenzofuro[3,2-e]isoquinolin-7-yl)-2-((1-(3-((6-methylpyridin-2-yl)ethynyl)phenoxy)-4,8,14-trioxo-6-oxa-3,9,13-triazapentadecan-15-yl)oxy)acetamide] | 113.3 | 36.08 | 10.08 | nmol range | No Tolerance | No Tolerance | devoid of tolerance; also recorded: No Tolerance | 64.36 | Tolerance ([4]; i.c.v.): No Tolerance
Cc1cccc(C#Cc2cccc(OCCNC(=O)COCC(=O)NCCCCCCCNC(=O)COCC(=O)N[C@H]3CC[C@@]4(O)C5Cc6ccc(O)c7c6[C@@]4(CCN5C)[C@H]3O7)c2)n1 [Compound 4d, N-((4aS,7S,7aR,12bS)-4a,9-dihydroxy-3-methyl-2,3,4,4a,5,6,7,7a-octahydro-1H-4,12-methanobenzofuro[3,2-e]isoquinolin-7-yl)-2-((1-(3-((6-methylpyridin-2-yl)ethynyl)phenoxy)-4,8,18-trioxo-6-oxa-3,9,17-triazanonadecan-19-yl)oxy)acetamide] | – | 132.7 | – | nmol range | – | No tolerance | devoid of tolerance; also recorded: No tolerance | 411.9 | % MPE ([1]; i.c.v., 1000 pmol): 53.76 ± 16.36% MPE
CNC(=O)COCC(=O)NCCCNC(=O)COCC(=O)NCCOc1cccc(C#Cc2cccc(C)n2)c1 [Compound 6, N-methyl-2-(1-(3-((6-methylpyridin-2-yl)ethynyl)phenoxy)-4,8,14-trioxo-6-oxa-3,9,13-triazapentadecan-15-yloxy)acetamide] | – | – | 548.7 | – | – | – | No tolerance | – | % MPE ([1]; i.c.v., 250 pmol/mouse): 24.87 ± 11.77% MPE; % MPE ([1]; i.t., 2500 pmol/mouse): 26.13 ± 7.27% MPE; % MPE ([2]; i.c.v., 2500 pmol/mouse): 38.83 ± 11.59% MPE; % MPE [5]: 17.59±18.24 % MPE
Cc1cccc(C#Cc2ccccc2)n1 [MPEP] | – | – | – | – | – | – | – | – | effect on bone cancer-evoked pain [6]: attenuated bone cancer-evoked spontaneous pain
CN1CC[C@]23c4c5ccc(O)c4O[C@H]2[C@@H](O)C=C[C@H]3[C@H]1C5 [Morphine, reference compound] | – | – | – | – | – | – | – | – | % of mice with O2 Saturation less than 90% [7]: 50%
